Measured values: PubChem BioAssay (NCI)
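Results reflect a 48-hour exposure of cells in 96-well plates to compound at five concentrations. At the GI50, growth is halved. Definition used: TGI = concentration required for complete inhibition of growth.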

Tests used:
Test in all cases: inhibition of tumour cell growth, NCI panel, 48 h
[1] = tested on: SK-MEL-5 melanoma
[2] = tested on: A498 renal
[3] = tested on: UO-31 renal
[4] = tested on: HCC-2998 colon
[5] = tested on: COLO 205 colon
[6] = tested on: OVCAR-4 ovarian
[7] = tested on: OVCAR-5 ovarian
[8] = tested on: UACC-62 melanoma
[9] = tested on: T-47D breast
[10] = tested on: MDA-MB-435

O=C(CCc1cc(-c2ccco2)n(-c2ccc([N+](=O)[O-])cc2[N+](=O)[O-])n1)Nc1ccccc1
TGI [1]: > 100 µM
TGI [2]: > 100 µM
TGI [3]: > 100 µM
TGI [4]: > 100 µM
TGI [5]: > 100 µM
TGI [6]: > 100 µM
TGI [7]: > 100 µM
TGI [8]: > 100 µM

COc1ccc(OC)c(/C=C/c2cnnc3ccccc23)c1
TGI [1]: > 10 µM
TGI [9]: > 10 µM
TGI [10]: 2.01 µM
TGI [3]: > 10 µM
TGI [4]: > 10 µM
TGI [5]: > 10 µM
TGI [6]: > 10 µM
TGI [7]: > 10 µM
TGI [8]: > 10 µM

COC(=O)c1cc(O)ccc1NC(=O)c1ccc(O)cc1
TGI [1]: > 100 µM
TGI [3]: > 100 µM
TGI [4]: > 100 µM
TGI [5]: > 100 µM
TGI [6]: > 100 µM
TGI [7]: > 100 µM
TGI [8]: > 100 µM

Cc1ccccc1C(C#N)/C(=N/NC(=O)C(=O)NN)C(=O)Nc1cccc(C(F)(F)F)c1 (centres undefined)
TGI [1]: > 100 µM
TGI [2]: > 100 µM
TGI [3]: > 100 µM
TGI [4]: > 100 µM
TGI [5]: > 100 µM
TGI [6]: > 100 µM
TGI [7]: > 100 µM
TGI [8]: > 100 µM

CC(=O)O[C@@H]1CC(=O)O[C@@H]2C[C@@H](CC/C(Cl)=C/C/C=C\1C)O[C@@H]2CO
GI50 [1]: > 25 µM
TGI [1]: > 25 µM
GI50 [2]: 20.1 µM
TGI [2]: > 25 µM
GI50 [3]: > 25 µM
TGI [3]: > 25 µM
GI50 [4]: > 25 µM
TGI [4]: > 25 µM
GI50 [5]: > 25 µM
TGI [5]: > 25 µM
GI50 [7]: > 25 µM
TGI [7]: > 25 µM
GI50 [8]: > 25 µM
TGI [8]: > 25 µM

COc1ccc(OC)c2c3c(ncc12)-c1cc2c(cc1C3)OCO2
GI50 [1]: 22.1 µM
TGI [1]: > 100 µM
GI50 [9]: > 100 µM
TGI [9]: > 100 µM
GI50 [10]: > 100 µM
TGI [10]: > 100 µM
GI50 [3]: > 100 µM
TGI [3]: > 100 µM
GI50 [4]: > 100 µM
TGI [4]: > 100 µM
GI50 [5]: > 100 µM
TGI [5]: > 100 µM
GI50 [6]: > 100 µM
TGI [6]: > 100 µM
GI50 [7]: > 100 µM
TGI [7]: > 100 µM
GI50 [8]: > 100 µM
TGI [8]: > 100 µM

CC1=C(C(=O)Nc2ccc(Cl)c(Cl)c2)C(c2cccc(O)c2)NC(=S)N1 (centres undefined)
GI50 [1]: 8.12 µM
TGI [1]: 15.4 µM
GI50 [10]: 9.16 µM
TGI [10]: 18.5 µM
GI50 [3]: 9.48 µM
TGI [3]: 19.1 µM
GI50 [5]: 7.09 µM
TGI [5]: 14.6 µM
GI50 [6]: 12.4 µM
TGI [6]: > 50 µM
GI50 [7]: > 50 µM
TGI [7]: > 50 µM
GI50 [8]: 7.09 µM
TGI [8]: 14.7 µM

[O-][N+]1=C(c2ccccc2)COc2ccccc21
TGI [1]: > 100 µM
TGI [2]: > 100 µM
TGI [3]: > 100 µM
TGI [4]: > 100 µM
TGI [5]: > 100 µM
TGI [6]: > 100 µM
TGI [7]: > 100 µM
TGI [8]: > 100 µM

CCOCC[P+](c1ccccc1)(c1ccccc1)c1ccccc1
GI50 [1]: 10.1 µM
TGI [1]: 25 µM
GI50 [9]: 4.21 µM
TGI [9]: > 100 µM
GI50 [2]: 17.6 µM
TGI [2]: 64.2 µM
GI50 [10]: 9.26 µM
TGI [10]: 51.9 µM
GI50 [3]: 34.8 µM
TGI [3]: > 100 µM
GI50 [5]: 11.7 µM
TGI [5]: 26.5 µM
GI50 [6]: 11.9 µM
TGI [6]: > 100 µM
GI50 [7]: 25.9 µM
TGI [7]: > 100 µM

O=c1[nH]c(C2CCCCC2)nc2cc(Cl)ccc12
TGI [1]: > 100 µM
TGI [3]: > 100 µM
TGI [4]: > 100 µM
TGI [5]: > 100 µM
TGI [6]: > 100 µM
TGI [7]: > 100 µM
TGI [8]: > 100 µM

COC(=O)/C(Cl)=C1/CC1COCc1ccccc1 (centres undefined)
TGI [1]: 54.7 µM
TGI [2]: 96.9 µM
TGI [3]: 67.5 µM
TGI [4]: > 10 µM
TGI [5]: 44.4 µM
TGI [6]: 84.2 µM
TGI [7]: > 100 µM
TGI [8]: 66.8 µM

C/C(CN1C(=O)c2ccccc2C1=O)=N\NS(C)(=O)=O
TGI [1]: > 100 µM
TGI [2]: > 100 µM
TGI [3]: > 100 µM
TGI [4]: > 100 µM
TGI [5]: > 100 µM
TGI [6]: > 100 µM
TGI [7]: > 100 µM
TGI [8]: > 100 µM

COC(=O)C1CCc2nnc(-c3cccnc3)n21 (centres undefined)
TGI [1]: > 100 µM
TGI [2]: > 100 µM
TGI [3]: > 100 µM
TGI [4]: > 100 µM
TGI [5]: > 100 µM
TGI [6]: > 100 µM
TGI [8]: > 100 µM

O=C(Nc1cc(Cl)cc(Cl)c1)c1ccc(NC2=C(Cl)C(=O)N(Cc3ccccc3)C2=O)cc1
GI50 [1]: 1.57 µM
TGI [1]: 3.19 µM
GI50 [9]: 30.9 µM
TGI [9]: > 100 µM
GI50 [2]: 8.06 µM
TGI [2]: 22.2 µM
GI50 [10]: 11.7 µM
TGI [10]: 25.2 µM
GI50 [3]: 2.29 µM
TGI [3]: 6.01 µM
GI50 [5]: 28.6 µM
TGI [5]: > 100 µM
GI50 [6]: 18.6 µM
TGI [6]: > 100 µM
GI50 [7]: 4.68 µM
TGI [7]: 17.8 µM
GI50 [8]: 4.13 µM
TGI [8]: 16.7 µM

Clc1cccc(Cc2cn3cc(-c4ccccc4)nc3s2)c1
GI50 [1]: 2.67 µM
TGI [1]: > 100 µM
GI50 [9]: 2.33 µM
TGI [9]: > 100 µM
GI50 [10]: 3.48 µM
TGI [10]: > 100 µM
GI50 [3]: 7.47 µM
TGI [3]: > 100 µM
GI50 [4]: 2.39 µM
TGI [4]: > 100 µM
GI50 [6]: 4.42 µM
TGI [6]: > 100 µM
GI50 [7]: 66.8 µM
TGI [7]: > 100 µM
GI50 [8]: 0.323 µM
TGI [8]: 1.97 µM

C/C(CC(=O)Nc1ccc([N+](=O)[O-])cc1)=N/N=C(N)N
TGI [1]: > 100 µM
TGI [3]: > 100 µM
TGI [4]: > 100 µM
TGI [5]: > 100 µM
TGI [7]: > 100 µM
TGI [8]: > 100 µM

O=C1CSc2ccncc2N1
TGI [1]: > 100 µM
TGI [2]: > 100 µM
TGI [3]: > 100 µM
TGI [4]: > 100 µM
TGI [5]: > 100 µM
TGI [6]: > 100 µM
TGI [7]: > 100 µM
TGI [8]: > 100 µM

Cc1ccc(S(=O)(=O)NC(=O)Nc2nc(Cl)cc(Cl)n2)cc1
TGI [1]: > 100 µM
TGI [2]: > 100 µM
TGI [3]: > 100 µM
TGI [4]: > 100 µM
TGI [5]: > 100 µM
TGI [6]: > 100 µM
TGI [7]: > 100 µM
TGI [8]: > 100 µM

Cn1c(-c2ccccc2)c/c(=N\NS(C)(=O)=O)c2cc(S(=O)(=O)O)ccc21
TGI [1]: > 100 µM
TGI [3]: > 100 µM
TGI [4]: > 100 µM
TGI [5]: > 100 µM
TGI [6]: > 100 µM
TGI [7]: > 100 µM
TGI [8]: > 100 µM

O=[N+]([O-])c1ccc(C2N3CCCCC3[C@@H]3c4[nH]c5ccccc5c4CCN23)cc1 (some centres undefined)
TGI [1]: 28.2 µM
TGI [2]: 36.5 µM
TGI [3]: 81.8 µM
TGI [5]: 38 µM
TGI [6]: > 100 µM
TGI [7]: 56.5 µM
TGI [8]: 18.6 µM

CC(C)(C)C1CCN(C(=O)c2ccccc2)CC1
TGI [1]: > 100 µM
TGI [2]: > 100 µM
TGI [3]: > 100 µM
TGI [4]: > 100 µM
TGI [5]: > 100 µM
TGI [7]: > 100 µM
TGI [8]: > 100 µM
